Measured values: ChEMBL document CHEMBL4406848, “Novel water soluble BODIPY compounds: Synthesis, photochemical, DNA interaction, topoisomerases inhibition and photodynamic activity properties” (Eur J Med Chem, 2019)
Blank lines part the entries; values can stand above or below the compound they belong to. Activity calls are given as the source filed them. The calls are words filed in the database; no cut-off is given here.

Experiments:
[1] = test system: Calf thymus DNA; assay: Binding affinity to calf thymus DNA assessed as binding constant incubated for 10 mins by UV-visible spectrophotometry; format: nucleic-acid assay; settings: Bos taurus
[2] = test system: HCT-116; assay: Phototoxicity against human HCT116 cells assessed as cell viability at 1 uM incubated for 24 hrs under 17.5 mW/cm2 light irradiation by MTT assay relative to control; format: functional; settings: HCT-116, light or radiation study, read-out: Activity
[3] = test system: DNA; assay: Induction of Escherichia coli plasmid pBR322 DNA cleavage assessed as increase in nicked circular DNA at 3.125 uM in presence of light irradiation and incubated for 1 hr by agarose gel electrophoresis relative to control; format: nucleic-acid assay
[4] = target: DNA topoisomerase II (Homo sapiens) (UniProt P11388+Q02880); assay: Inhibition of recombinant human topoisomerase 2 assessed as supercoiled DNA at 25 uM incubated for 1 hr by ethidium bromide staining based agarose gel electrophoresis method relative to control; format: protein assay; parameters: scale not given: the % may be the effect or the level left
[5] = target: T1, DNA topoisomerase 1 (Homo sapiens) (UniProt P11387); assay: Inhibition of recombinant human topoisomerase 1 at 12.50 uM incubated for 1 hr by ethidium bromide staining based agarose gel electrophoresis method relative to control
T1 sequence (whole entry): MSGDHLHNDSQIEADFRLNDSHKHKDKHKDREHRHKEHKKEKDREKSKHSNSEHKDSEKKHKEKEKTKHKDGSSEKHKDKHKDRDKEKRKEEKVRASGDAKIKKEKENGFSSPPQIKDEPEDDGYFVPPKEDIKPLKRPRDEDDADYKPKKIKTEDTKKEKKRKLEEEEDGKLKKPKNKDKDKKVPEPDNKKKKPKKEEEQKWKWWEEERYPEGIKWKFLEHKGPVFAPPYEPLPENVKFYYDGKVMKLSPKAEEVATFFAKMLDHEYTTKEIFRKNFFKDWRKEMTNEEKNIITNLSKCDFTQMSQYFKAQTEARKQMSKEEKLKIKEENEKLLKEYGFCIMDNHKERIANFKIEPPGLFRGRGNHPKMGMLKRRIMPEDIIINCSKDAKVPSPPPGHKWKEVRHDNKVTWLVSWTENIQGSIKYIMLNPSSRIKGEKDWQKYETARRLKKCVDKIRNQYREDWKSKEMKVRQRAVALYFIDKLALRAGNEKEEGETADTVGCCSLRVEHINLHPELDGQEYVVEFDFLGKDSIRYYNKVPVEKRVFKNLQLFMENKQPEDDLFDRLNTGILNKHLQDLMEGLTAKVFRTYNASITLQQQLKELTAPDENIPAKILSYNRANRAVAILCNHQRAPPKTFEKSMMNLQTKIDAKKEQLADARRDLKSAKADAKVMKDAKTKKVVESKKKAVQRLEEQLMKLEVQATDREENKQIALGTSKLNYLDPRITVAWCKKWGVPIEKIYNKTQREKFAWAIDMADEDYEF

[6] = test system: HCT-116; assay: Phototoxicity against human HCT116 cells assessed as cell viability at 10 uM incubated for 24 hrs under 17.5 mW/cm2 light irradiation by MTT assay relative to control; format: functional; settings: HCT-116, light or radiation study, read-out: Activity
[7] = target: T1, DNA topoisomerase 1 (Homo sapiens); assay: Inhibition of recombinant human topoisomerase 1 assessed as supercoiled pBR322 DNA at 50 uM incubated for 1 hr by ethidium bromide staining based agarose gel electrophoresis method relative to control; parameters: scale not given: the % may be the effect or the level left
[8] = test system: HCT-116; assay: Induction of apoptosis in human HCT116 cells assessed as necrotic cells at 50 uM incubated for 24 hrs in presence of irradiation by annexin V FITC and propidium iodide based flow cytometry (reference value: 0.2 %); format: functional
[9] = test system: DNA; assay: Induction of Escherichia coli plasmid pBR322 DNA cleavage assessed as increase in nicked circular DNA at 6.25 to 50 uM in presence of light irradiation and incubated for 1 hr by agarose gel electrophoresis; format: nucleic-acid assay
[10] = target: T1, DNA topoisomerase 1 (Homo sapiens); assay: Inhibition of recombinant human topoisomerase 1 assessed as supercoiled pBR322 DNA at 12.5 uM incubated for 1 hr by ethidium bromide staining based agarose gel electrophoresis method relative to control; parameters: scale not given: the % may be the effect or the level left
[11] = test system: HCT-116; assay: Induction of apoptosis in human HCT116 cells assessed as late apoptotic cells at 50 uM incubated for 24 hrs in presence of irradiation by annexin V FITC and propidium iodide based flow cytometry (reference value: 1.6 %); format: functional
[12] = test system: DNA; assay: Induction of Escherichia coli plasmid pBR322 DNA cleavage assessed as decrease in supercoiled DNA at 6.25 to 50 uM in presence of light irradiation and incubated for 1 hr by agarose gel electrophoresis relative to control; format: nucleic-acid assay; parameters: scale not given: the % may be the effect or the level left
[13] = test system: HCT-116; assay: Phototoxicity against human HCT116 cells assessed as cell viability at 50 uM incubated for 24 hrs under 17.5 mW/cm2 light irradiation by MTT assay relative to control; format: functional; settings: HCT-116, light or radiation study, read-out: Activity
[14] = test system: HCT-116; assay: Induction of apoptosis in human HCT116 cells assessed as early apoptotic cells at 50 uM incubated for 24 hrs in presence of irradiation by annexin V FITC and propidium iodide based flow cytometry (reference value: 3.4 %); format: functional
[15] = test system: HCT-116; assay: Induction of apoptosis in human HCT116 cells assessed as viable cells at 50 uM incubated for 24 hrs in presence of irradiation by annexin V FITC and propidium iodide based flow cytometry (reference value: 94.8 %); format: functional; settings: HCT-116, light or radiation study, read-out: Activity
[16] = Induction of singlet oxygen generation in DMSO solution assessed as singlet oxygen quantum yield by measuring reduction in DPBF irradiated with 650 nanometer laser light; format: functional
[17] = test system: DNA; assay: Induction of Escherichia coli plasmid pBR322 DNA cleavage assessed as increase in nicked circular DNA in presence of light irradiation and incubated for 1 hr by agarose gel electrophoresis; format: nucleic-acid assay
[18] = test system: DNA; assay: Induction of Escherichia coli plasmid pBR322 DNA cleavage assessed as increase in nicked circular DNA at 50 uM in presence of light irradiation and incubated for 1 hr by agarose gel electrophoresis; format: nucleic-acid assay
[19] = target: T1, DNA topoisomerase 1 (Homo sapiens); assay: Inhibition of recombinant human topoisomerase 1 assessed as linear DNA at 50 uM incubated for 1 hr by ethidium bromide staining based agarose gel electrophoresis method relative to control
[20] = test system: HCT-116; assay: Induction of apoptosis in human HCT116 cells assessed as late apoptotic cells at 5 uM incubated for 24 hrs in presence of irradiation by annexin V FITC and propidium iodide based flow cytometry (reference value: 1.6 %); format: functional
[21] = test system: HCT-116; assay: Induction of apoptosis in human HCT116 cells assessed as early apoptotic cells at 5 uM incubated for 24 hrs in presence of irradiation by annexin V FITC and propidium iodide based flow cytometry (reference value: 3.4 %); format: functional
[22] = test system: DNA; assay: Induction of Escherichia coli plasmid pBR322 DNA cleavage assessed as decrease in supercoiled DNA at 50 uM in presence of light irradiation and incubated for 1 hr by agarose gel electrophoresis; format: nucleic-acid assay
[23] = test system: HCT-116; assay: Induction of apoptosis in human HCT116 cells assessed as necrotic cells at 5 uM incubated for 24 hrs in presence of irradiation by annexin V FITC and propidium iodide based flow cytometry (reference value: 0.2 %); format: functional
[24] = test system: HCT-116; assay: Induction of apoptosis in human HCT116 cells assessed as viable cells at 5 uM incubated for 24 hrs in presence of irradiation by annexin V FITC and propidium iodide based flow cytometry (reference value: 94.8 %); format: functional; settings: HCT-116, light or radiation study, read-out: Activity
[25] = test system: DNA; assay: Induction of Escherichia coli plasmid pBR322 DNA cleavage assessed as linear form at 50 uM irradiated with light and incubated for 1 hr by agarose gel electrophoresis; format: nucleic-acid assay

Kb [1]: 1.59 ×10³ /M
Activity [3]: 41.5%
Activity [4]: 81.8%
inhibition [5]: 89.1%
Activity [7]: 69.5%
Activity [9]: Active
Activity [10]: 64.2%
Activity [12]: 100%
SMILES: CC1=CC(/C=C/c2ccc(OCCCc3ccc[n+](C)c3)c(OCCCc3ccc[n+](C)c3)c2)=[N+]2C1=C(c1ccc(OCCCc3ccc[n+](C)c3)c(OCCCc3ccc[n+](C)c3)c1)c1c(C)cc(/C=C/c3ccc(OCCCc4ccc[n+](C)c4)c(OCCCc4ccc[n+](C)c4)c3)n1[B-]2(F)F.[I-].[I-].[I-].[I-].[I-].[I-]
viability at 1 µM [2]: 100%
viability at 10 µM [6]: 99%
Activity [8]: 0.2%
Activity [11]: 1.4%
viability at 50 µM [13]: 85%
Activity [14]: 4.8%
viability at 50 µM [15]: 93.7%
Activity [16]: 0.62

Activity [17]: Dose-dependent effect
Activity [18]: inactive
Kb [1]: 1.87 ×10⁴ /M
inhibition [19]: 100%
inhibition [5]: 88.5%
Activity [22]: inactive
Activity [25]: inactive
SMILES: CC1=CC(/C=C/c2ccc(OCCCc3ccc[n+](C)c3)cc2)=[N+]2C1=C(c1ccc(OCCCc3ccc[n+](C)c3)cc1)c1c(C)cc(/C=C/c3ccc(OCCCc4ccc[n+](C)c4)cc3)n1[B-]2(F)F.[I-].[I-].[I-]
Activity [20]: 30.5%
viability at 1 µM [2]: 97%
Activity [21]: 35.8%
viability at 10 µM [6]: 10%
Activity [23]: 10.7%
viability at 5 µM [24]: 23%
viability at 50 µM [13]: 6%
Activity [16]: 0.46
